Source: patent publication US20130195926A1, “MODULATION OF NITRIC OXIDE SIGNALING TO NORMALIZE TUMOR VASCULATURE” (The General Hospital Corporation, priority 2007, published 2013)
“Also recorded” adds a separate entry of the source.

Key:
MCaIV tumors = experiment: Intravital microscopy of MCaIV tumors under iNOS inhibition; type: in vivo, mice; settings: 1400 W 10 mg/kg/day by osmotic pump vs saline, 7 days
Excerpt: FIGS. 12A-E show the effect of iNOS inhibition in MCaIV tumors and blood vessel morphology and function in MCaIV tumors. (A) Fluorescence immunohistochemistry image of iNOS expression (green), F4/80 positive macrophages (red) and DAPI stained nuclei (blue) in MCaIV tumors grown in the mammary fat pad. The bar indicates 50 μm. (B-C) MPLSM images of MCaIV tumors grown in αSMA^P-GFP mice treated with saline control (B) or an iNOS inhibitor 1400 W (C). Functional blood vessels were contrast-enhanced by i.v. injection of tetramethylrhodamine-dextran (red). αSMA-positive perivascular cells were visualized by GFP fluorescence (green). The bars indicate 100 μm. (D-E) MCaIV tumors grown in αSMAP-GFP mice were treated with saline (control) or iNOS inhibitor (1400 W) for 7 days. (D) Perivascular cell coverage. (N=4, each). (E) Vascular permeability (N=7, each). Data are mean±SEM. *p<0.05 vs. control.
Breast cancer cells in MCaIV murine mammary tumor model express iNOS similar to many human tumors, in contrast to the U87MG glioma model, in which tumor cells predominantly express neuronal NOS (nNOS). MCaIV tumors grown orthotopically in the mammary fat pad express iNOS and to a much lesser extent eNOS as determined by real time RT-PCR. […] Inhibition of iNOS would eliminate the majority of non-vascular NO production. […]

10T1/2 cells = experiment: cGMP production in cultured 10T1/2 cells; type: cell-based; settings: 100 μM
Experimental: FIGS. 13A-C show the role of the NO-sGC-cGMP pathway in perivascular cell recruitment and migration. (A) In bar graph form, cGMP production in cultured 10T1/2 cells in response to NO donor or PDE5 inhibitor. (B) In bar graph form, the migration of 10T1/2 cells in a transwell assay. 10T1/2 cell migration was assessed using Falcon HTS FluoroBlok inserts with 1 μm pores. GFP-expressing 10T1/2 cells were inoculated in the inserts, and HUVECs were inoculated in the outer well. Percent area of transwell filter covered by migrated 10T1/2 cells was determined. Medium only indicates no HUVECs in the outer well. ODQ, T-1032, Sildenafil, or Sildenafil+L-NMMA were added to the medium. *P<0.05 vs. control (HUVEC). (C) Images for transmigrated GFP-10T1/2 cells at the back side of the Fluoroblock insert after 10 hours with control vs. T-1032 treatment.
cGMP levels were examined in 10T1/2 cells following treatments of an NO donor DETANONOate or an inhibitor for phosphodiesterase 5 (PDE5), an enzyme which degrades cGMP.

U87MG tumors [1] = experiment: Vessel morphology of U87 tumors in the cranial window by intravital microscopy; type: in vivo, mice; settings: L-NPA 20 mg/kg daily i.p. vs saline, cranial window
Experimental: Recombination activating gene 1 (Rag-1^−/−) mice backcrossed to C57BL/6 background or severe combined immunodeficiency (SCID) mice, bred and maintained in an gnotobiotic animal facility, were used. To obtain source tumor tissue, U87 tumor cells in culture (1×10^6 cells) were injected subcutaneously into Rag-1^−/− or SCID mice matching the recipient mice. When the tumor reached about 8 mm in diameter, it was excised after euthanasia and a small piece (about 1 mm^3) of viable tumor tissue was implanted into a cranial window or subcutaneously into the calf area of the right hindlegs of the mice as previously described (Kashiwagi, S., et al. 2005 J. Clin. Invest. 115, 1816-1827; Kozin, S. V., et al. 2001 Cancer Research 61, 39-44). All animal procedures were carried oat following the Public Health Service Policy on Humane Care of Laboratory Animals and approved by the Institutional Animal Care and Use Committee of Massachusetts General Hospital. […]
(§1) Angiogenesis and vessel morphology were determined in U87 and GL261 tumors grown in the cranial windows by intravital microscopy using multiphoton laserscanning microscopy (MPLSM) or single photon fluorescence microscopy (SPFM) when tumors reached about 7 mm^2. […] Using MPLSM, five locations with 200-μm thick imaging stack were recorded for each tumor. […]
Vascular parameters such as functional vessel density (the total length of perfused microvessels per unit area) and vessel diameter were analyzed by tracing each vessel segment using NIH image 1.63 as described elsewhere (Kashiwagi, S., et al. 2005 J. Clin. Invest. 115, 1816-1827). Tissue distribution of NO was visualized using MPLSM and the NO-sensitive fluorescence probe 4,5-diaminofluorescein (DAF-2) (0.5 mg i.v. Daiichi Pure Chemicals Co. Ltd) as described previously (Kashiwagi, S., et al. 2005 J. Clin. Invest. 115, 1816-1827). NO converts DAF-2 to 4,5-diaminofluorescein triazolium (DAF-2T) increasing fluorescence by a factor of 200. The DAF-2 associated fluorescence images were captured 60 min after i.v. injection. […]

U87MG tumors [2] = experiment: Microvascular permeability of U87 tumors by intravital microscopy with tetramethylrhodamine-BSA; type: in vivo, mice; settings: L-NPA 20 mg/kg daily i.p. vs saline, cranial window
Experimental: To lower NO production from all NOS isoforms in the gliomas, mice received a pan-NOS inhibitor NG-Monomethyl-L-arginine monoacetate (L-NMMA) (Alexis Corp.) or non-active control compound D-NMMA (Alexis Corp.) at the rate of 7 mg/day by a constant release micro-osmotic pump (Model 1002, Alzet Osmotic Pumps, Durect Corp.) (Kashiwagi, S., et al. 2005 J. Clin. Invest. 115, 1816-1827). The micro-osmotic pumps were implanted in the back of the animals one day before the implantation of tumors. […]
The effective vascular permeability (P) was determined by SPFM as described previously (Fukumura, D., et al. 2001 Proc Natl Acad Sci USA 98, 2604-2609). In brief, the fluorescence intensity of the tumor tissue was intermittently measured for 20 min after the injection of tetramethylrhodamine-labeled bovine serum albumin (10 mg/ml, 0.1 ml per 25 g body weight). Permeability was calculated as P=(1−HT) V/S [1/(I0−Ib)*dI/dt+1/K], where I is the average fluorescence intensity of the whole image, I0 is the initial fluorescence intensity, and Ib is the background fluorescence intensity, HT is hematocrit, V and S are the total volume and surface area of vessels within the tissue volume covered by the surface image, respectively, and K is the time constant of BSA plasma clearance (Fukumura, D., et al. 2001 Proc Natl Acad Sci USA 98, 2604-2609).

GL261 tumors = experiment: Vessel morphology and function of GL261 tumors in the cranial window; type: in vivo; settings: L-NPA vs saline, SCID mice
Experimental: FIGS. 7A-E show NOS expression in GL261 tumors and the effect of an nNOS selective inhibitor on vessel morphology and function in GL261 tumors. (A) NOS expression in GL261 tumors grown in the cranial window in SCID mice. Five micron paraffin block sections were immunostained using antibodies to eNOS, nNOS, iNOS or non-specific mouse IgG. The bar indicates 100 μm. Different from U87MG tumors, GL261 tumor cells express all three isoforms of NOS, especially strong expression of eNOS. (B) MPLSM microangiographies of GL261 tumors treated with saline and L-NPA. The bar indicates 200 μm. (C-D) Quantification of 3-D vessel density (C) and diameter (D) using MPLSM image stack and an automated image analysis system. N=6 each. (E) Microvascular permeability in GL261 tumors treated with saline (N=6) and L-NPA (N=6) was measured by intravital microscopy using tetramethylrhodamine-BSA. […]
as §1
The effective vascular permeability (P) was determined by SPFM as described previously (Fukumura, D., et al. 2001 Proc Natl Acad Sci USA 98, 2604-2609). […]

In the case of `CC(=N)NCc1cccc(CN)c1` [1400 W, N-(3-(Aminomethyl)benzyl) acetamidine], the vascular permeability (MCaIV tumors) is reported as “significantly lower” and the perivascular cell coverage (MCaIV tumors; αSMAP-GFP mice) is reported as “significantly increased”.
For `NCCN(CCN)/[N+]([O-])=N/O` [DETANONOate], the cGMP level (10T1/2 cells) was “increased”.
For `CCCN=C(N)NCCC[C@H](N)C(=O)O` [L-NPA, NG propyl-L-arginine], the vessel density (U87MG tumors [1]) was “increased”, the vascular permeability (U87MG tumors [2]) was “decreased” and the “tumor vasculature (vessel morphology and function)” value (GL261 tumors) was “did not improve; also recorded: did not alter”.
